# Values of other authors, collected in patent US20110130383A1, “Use of Ion Channel Modulators in the Prophylaxis and Treatment of Inflammatory and Immunological Diseases” (LECTUS THERAPEUTICS LIMITED, priority 2006, published 2011).
# Key:
# Kv1.3 channels = Kv1.3 channels (Homo sapiens, UniProt P22001); conditions: inhibition of Kv1.3 channels versus cardiac Kv1.5 channels
# [1] = rats, 28-day, administered by gavage; tissues including those reported to express Kv1.3 channels
# Kv1.3 channels, sequence (P22001 whole entry): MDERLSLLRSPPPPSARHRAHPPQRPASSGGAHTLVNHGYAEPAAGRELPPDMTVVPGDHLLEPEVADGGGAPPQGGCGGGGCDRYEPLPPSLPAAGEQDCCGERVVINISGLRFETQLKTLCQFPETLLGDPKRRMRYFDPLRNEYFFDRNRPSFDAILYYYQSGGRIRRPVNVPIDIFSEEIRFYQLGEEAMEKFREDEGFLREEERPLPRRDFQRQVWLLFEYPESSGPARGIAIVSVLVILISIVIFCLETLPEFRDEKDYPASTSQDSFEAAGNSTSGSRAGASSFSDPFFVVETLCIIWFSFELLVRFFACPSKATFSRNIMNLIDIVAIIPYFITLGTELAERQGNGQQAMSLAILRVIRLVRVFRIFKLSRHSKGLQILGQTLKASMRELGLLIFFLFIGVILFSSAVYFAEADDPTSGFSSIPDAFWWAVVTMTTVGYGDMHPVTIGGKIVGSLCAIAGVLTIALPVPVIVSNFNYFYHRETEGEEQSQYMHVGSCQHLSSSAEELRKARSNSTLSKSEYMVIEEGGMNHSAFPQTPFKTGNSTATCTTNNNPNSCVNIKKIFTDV
structure (smiles),measurement,setting,value
O=c1ccc2c(OCCCCOc3ccccc3)c3ccoc3cc2o1 [PAP-1],selectivity over cardiac Kv1.5 channels,Kv1.3 channels,23 fold
same,histopathological changes in tissues examined,[1],failed to induce any histopathological changes
